Data published in ChEMBL document CHEMBL5505952, “Targeting SARS-CoV-2 entry processes: The promising potential and future of host-targeted small-molecule inhibitors” (Eur J Med Chem, 2024).

Test system: SARS-CoV-2
Type: functional, organism-based
Conditions: Severe acute respiratory syndrome coronavirus 2, Vero C1008

Which EC50 does the source give for `CC(CN(C)C)CN1c2ccccc2Sc2ccccc21` (stereo unspecified) [METHYLPROMAZINE] here?
Its EC50 is 2420 nM.
